# Measured values reported in patent US7608620B2, “LPAAT-β inhibitors and uses thereof” (Cell Therapeutics, Inc., priority 2000, dated 2009).
# Molecular target: T1, LPAAT-β (Homo sapiens, UniProt O15120)
# T1 construct: the full-length human LPAAT-β cDNA was amplified by PCR; made in house; host or cells: Sf9 insect cells (baculovirus, pFastBac HTc); membrane fraction
# T1 sequence (O15120 24-278): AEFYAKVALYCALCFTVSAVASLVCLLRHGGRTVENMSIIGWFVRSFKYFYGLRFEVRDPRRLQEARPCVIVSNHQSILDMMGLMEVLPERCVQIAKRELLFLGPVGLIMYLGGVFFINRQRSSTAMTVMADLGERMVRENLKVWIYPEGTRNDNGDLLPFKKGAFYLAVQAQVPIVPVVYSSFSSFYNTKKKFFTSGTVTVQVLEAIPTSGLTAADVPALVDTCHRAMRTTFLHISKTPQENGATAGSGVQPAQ
# Assay: LPAATβ colorimetric assay (DTNB detection of released CoA)
# Assay type: biochemical
# Details: Sf9 cell membrane overexpressing LPAAT-β
# Experimental: For the construction of Baculovirus expression vectors, the full-length human LPAAT-β cDNA was amplified by PCR from the DNA template pCE9.LPAAT-β (West et al., DNA Cell Biol. 16:691-701 (1997)) using the primers 5′-TGATATCCGAAGAAGATCTTATGGAGCTGTGGCCGTGTC-3′ (olpb1F; SEQ ID NO:3) and 5′-CAGGCTCTAG ACTACTGGGC CGGCTGCAC-3′ (olpb1R; SEQ ID NO:4). The ˜870 bp fragment generated was reamplified by PCR using the primers 5° CCTACGTCG ACATGGAACAAAAATTGATATCCGAAGAAGATC-3′ (olpb2F; SEQ ID NO:5) and 5′-CAGGCTCTAG ACTACTGGGC CGGCTGCAC-3′ (olpb1R; SEQ ID NO:6). The ˜890 bp fragment generated was then cleaved with Sal I and Xba I for insertion into pFastBac™ HTc vector (Life Technologies, Gaithersberg, Md.) between the Sal I and Xba I sites for the generation of the plasmid pFB.LPAAT-β. This plasmid was then transformed into E. coli DH10Bac™ (Life Technologies, Gaithersberg, Md.) for the generation of recombinant Bacmid DNA for transfection into HighFive (Invitrogen, San Diego, Calif.) or SF9 insect cells for the production of recombinant Baculovirus stocks using the protocol described in the Bac-to-Bac® Baculovirus Expression System (Life Technologies, Gaithersberg, Md.), a eukaryotic expression system for generating recombinant baculovirus through site- specific transposition in E. coli. Viral stocks harvested from the transfected cells can then be used to infect fresh insect cells for the subsequent expression of LPAAT-β fusion protein with a poly-histidine tag and a myc-epitope near its N-terminus. The membrane fraction from these Sf9 cells would be the source of LPAAT enzyme.
# For the preparation of membranes From Sf9 Cells, all steps are performed on ice or at 4° C. Sf9 cell pellets (˜10^8 cells) were thawed and resuspended in 1-2 ml of buffer A (20 mM Hepes, pH 7.5, 1 mM DTT, 1 mM EDTA, 20% w/v glycerol, 1 mM Benzamidine, 1 μg/ml soybean trypsin inhibitor (SBTI), 1 μg/ml pepstatin A) w/o DTT but with 1 mM Pefabloc. The cells were lysed by sonication using a Branson Sonifier at output=2, duty cycle=2, 10 pulses each at 10 s. with the tip of small sonicator probe submerged but not touching the walls. DTT was then added to 1 mM from a 1 M stock. The samples were centrifuged at 1500 rpm for 5 min. The low speed supernatant was saved and centrifuged (TLA 100.3 rotor, polycarbonate tubes, 2 ml/tube or 1.5 ml/tube minimum) at 100000×g for 1 hr. The high speed pellet was resuspend in Buffer A with a probe sonicator (10 pulses @ output #2 and duty cycle 20%) as a source of LPAAT enzyme.
# LPAAT-β catalyzes the transfer of an acyl group from a donor such as acyl-CoA to LPA. The transfer of the acyl group from acyl-CoA to LPA leads to the release of free CoA, which can be reacted with the thiol reagent, 5,5′-dithiobis(2-nitrobenzoic acid) (DTNB). The reaction between DTNB and the free sulfhydryl group from CoA generates a yellow-colored product, 3-carboxylato-4-nitrothiophenolate (CNP), that absorbs at 413 nm. LPAAT-β derived from Sf9 cell membrane overexpressing LPAAT-β were resuspended in HEPES saline buffer (20 mM HEPES pH 7.5, 150 mM NaCl), 1 mg/ml BSA and 72 μl aliquots were distributed into 96-well microtiter plates. 8 μl of compound of interest at 200 μM dissolved in 100% DMSO was added into each well. 20 μl of 1 mM 18:1-CoA and 1 mM sn-1-18: 1 lysoPA was then added to each well to initiate the reaction and allowed to run at room temperature for 25 min. 100 μl of 1 mM DTNB in 100% ethanol was then added to each well to quench the reaction and for color development. The absorbance at 405 nm, measured using a spectrophotometer plate reader, is proportional to the activity of LPAAT-β in the sample. This colorimetric assay was used for the high throughput screening of LPAAT inhibitors. […] Compounds that gave a reading of less than 0.06 arbitrary units (indicated by arrow on right margin) were selected for further study.
row,SMILES,IC50 [nM]
1,"COc1ccc(Nc2nc(Cl)nc(Nc3ccc(Cl)cc3)n2)cc1 [CT-31867, 6-chloro-N-(4-chlorophenyl)-N′-(4-methoxy-phenyl)-[1,3,5]triazine-2,4-diamine]",750
2,"CSc1nc(Nc2ccccc2)nc(Nc2ccc(Cl)cc2)n1 [CT-31888, N-(4-chlorophenyl)-6-methylsulfanyl-N′-phenyl-[1,3,5]triazine-2,4-diamine]",3100
3,"Clc1ccc(Nc2nc(Cl)nc(Nc3ccc4c(c3)OCO4)n2)cc1 [CT-31978, N-benzo[1,3]dioxol-5-yl-6-chloro-N′-(4-chlorophenyl)-[1,3,5]triazine-2,4-diamine]",1000
4,"CCCNc1nc(Nc2ccc(Cl)cc2)nc(OC)n1 [CT-117147, N-(4-chlorophenyl)-6-methoxy-N′-propyl-[1,3,5]triazine-2,4-diamine]",3800

# The next compounds have a lower IC50 than those just listed; values first:
row,IC50 [nM],SMILES
1,400,"COc1ccc(Nc2nc(Cl)nc(Nc3ccccc3)n2)cc1 [CT-31942, 6-chloro-N-(4-methoxyphenyl)-N′-phenyl-[1,3,5]triazine-2,4-diamine]"
2,200,"Clc1nc(Nc2ccccc2)nc(Nc2ccc3c(c2)OCCO3)n1 [CT-32028, 6-chloro-N-(2,3-dihydrobenzo[1,4]dioxin-6-yl)-N′-phenyl-[1,3,5]triazine-2,4-diamine]"
3,200,"Clc1nc(Nc2ccccc2)nc(Nc2ccc3c(c2)OCO3)n1 [CT-32042, N-benzo[1,3]dioxol-5-yl-6-chloro-N′-phenyl-[1,3,5]triazine-2,4-diamine]"
4,650,"Clc1nc(Nc2ccccc2)nc(Nc2ccc3c(c2)CCC3)n1 [CT-32099, 6-chloro-N-indan-5-yl-N′-phenyl-[1,3,5]triazine-2,4-diamine]"
5,160,"CCCNc1nc(Cl)nc(Nc2ccc(Cl)cc2)n1 [CT-116988, 6-chloro-N-2-(4-chlorophenyl)-N-4-propyl-[1,3,5]triazine-2,4-diamine]"
